Where a name gives a salt, the structure may show the parent alone.
How the values were obtained:
[1] = target: T1, human NHE-1 (Homo sapiens, UniProt P19634); assay: NHE-1 inhibition, FLIPR assay of pHi recovery in transfected cell lines; format: cell-based; details: transfected LAP-1 cell line expressing human NHE-1, read-out: NHE1 inhibition IC50
T1 construct: expressed in transfected cells
Procedure: Determination of the NHE Inhibition
The inhibitory concentration IC50 for NHE-1 inhibition was determined as follows:
IC50 for NHE-1 inhibition was determined in an FLIPR assay by measurement of the pHi recovery in transfected cell lines which express human NHE-1.
The assay was carried out in an FLIPR (fluorometric imaging plate reader) with black-walled 96-well microtiter plates with clear bases.
The growth medium for the transfected cells (Iscove+10% fetal calf serum) additionally contained G418 as selection antibiotic in order to ensure the presence of the transfected sequences.
The actual assay started with the removal of the growth medium and addition of 100 μl of loading buffer per well (5 μM BCECF-AM [2′,7′-bis(carboxyethyl)-5- (and -6-)carboxyfluorescein, acetoxymethyl ester] in 20 mM NH4Cl, 115 mM choline chloride, 1 mM MgCl2, 1 mM CaCl2, 5 mM KCl, 20 mM HEPES, 5 mM glucose; pH 7.4 [adjusted with KOH]). The cells were then incubated at 37° C. for 20 minutes. This incubation led to loading of the cells with the fluorescent dye whose fluorescence intensity depends on pHi, and with NH4Cl which made the cells slightly alkaline.
The nonfluorescent dye precursor BCECF-AM is, as ester, membrane-permeable. The actual dye BCECF is not membrane-permeable but is liberated inside cells by esterases.
After this incubation for 20 minutes, the loading buffer which contained NH4Cl and free BCECF-AM was removed by washing three times in a cell washer (Tecan Columbus) with in each case 400 μl of washing buffer (133.8 mM choline chloride, 4.7 mM KCl, 1.25 mM MgCl2, 1.25 mM CaCl2, 0.97 mM K2HPO4, 0.23 mM KH2PO4, 5 mM HEPES, 5 mM glucose pH 7.4 [adjusted with KOH]). The residual volume which remained in the wells was 90 μl (50-125 μl possible). This washing step removed the free BCECF-AM and resulted, as a consequence of the removal of the external NH4^+ ions, in intracellular acidification (˜pHi 6.3-6.4).
This may eventually lead to cell death if it persists long enough.
It was important at this point that the washing buffer was sodium-free (<1 mM) because extracellular sodium ions would lead to an instantaneous recovery of the pHi through the activity of the cloned NHE isoforms. It was likewise important for all the buffers used (loading buffer, washing buffer, recovery buffer) not to contain any HCO3^− ions, because the presence of bicarbonate would lead to activation of interfering bicarbonate-dependent pHi regulatory systems present in the parental LAP-1 cell line.
The microtiter plates with the acidified cells were then (up to 20 minutes after the acidification) transferred to the FLIPR. In the FLIPR, the intracellular fluorescent dye was excited by light with a wavelength of 488 nm generated by an argon laser, and the measured parameters (laser power, illumination time and aperture of the CCD camera incorporated in the FLIPR) were chosen so that the average fluorescence signal per well was between 30 000 and 35 000 relative fluorescence units.
The actual measurement in the FLIPR started with a photograph being taken by the CCD camera every two seconds under software control. After ten seconds, the recovery of the intracellular pH was initiated by adding 90 μl of recovery buffer (133.8 mM NaCl, 4.7 mM KCl, 1.25 mM MgCl2, 1.25 mM CaCl2, 0.97 mM K2HPO4, 0.23 mM KH2PO4, 10 mM HEPES, 5 mM glucose; pH 7.4 [adjusted with NaOH]) by means of the 96-well pipettor incorporated in the FLIPR.
Positive control wells (100% NHE activity) were those to which pure recovery buffer is added, while negative controls (0% NHE activity) received washing buffer. Recovery buffer with twice the concentration of test substance was added to all the other wells. Measurement in the FLIPR terminated after 60 measurements (two minutes).
The raw data are exported into the ActivityBase program. This program firstly calculates the NHE activities for each tested substance concentration and, from these, the IC50 values for the substances. […]

[2] = In vivo pharmacokinetics, "n in one method", i.v. bolus in beagle dog; details: iv; fasting male beagle dog, single i.v. bolus into jugular vein, about 1 mg/kg, plasma, co-administered (n in one)
Procedure: In vivo pharmacokinetics—profiling with the “n in one method”
The exposure data and the half-life were determined as characteristic pharmacokinetic data as follows:
The NHE-1 inhibitor of Example 9 of the invention and, as reference substance, the known NHE-1 inhibitor cariporide with the formula
[drawing 23] were dissolved in an aqueous, slightly acidic medium (water, pH 4, adjusted with 1M hydrochloric acid). The concentration of the aqueous formulation prepared in this way was about 1.5 mg of each substance per 1 g of solution. 10 ml of this formulation were administered as a single bolus by catheter into the jugular vein of a fasting male beagle dog (dose about 1 mg of each substance administered per kg of the dog's body weight). […]
The plasma samples were worked up and, after an HPLC separation, quantified by MS/MS. […] The exposures could be calculated using the WinNonlin computer program from the concentration-time plots (see FIG. 1) and compared with the exposure of the known NHE-1 reference substance. Since the various substances were measured in the same animal at the same time, the result was an accurate comparison of the compounds, and a ranking of the volumes of distribution was possible.

T1 sequence (P19634 whole entry): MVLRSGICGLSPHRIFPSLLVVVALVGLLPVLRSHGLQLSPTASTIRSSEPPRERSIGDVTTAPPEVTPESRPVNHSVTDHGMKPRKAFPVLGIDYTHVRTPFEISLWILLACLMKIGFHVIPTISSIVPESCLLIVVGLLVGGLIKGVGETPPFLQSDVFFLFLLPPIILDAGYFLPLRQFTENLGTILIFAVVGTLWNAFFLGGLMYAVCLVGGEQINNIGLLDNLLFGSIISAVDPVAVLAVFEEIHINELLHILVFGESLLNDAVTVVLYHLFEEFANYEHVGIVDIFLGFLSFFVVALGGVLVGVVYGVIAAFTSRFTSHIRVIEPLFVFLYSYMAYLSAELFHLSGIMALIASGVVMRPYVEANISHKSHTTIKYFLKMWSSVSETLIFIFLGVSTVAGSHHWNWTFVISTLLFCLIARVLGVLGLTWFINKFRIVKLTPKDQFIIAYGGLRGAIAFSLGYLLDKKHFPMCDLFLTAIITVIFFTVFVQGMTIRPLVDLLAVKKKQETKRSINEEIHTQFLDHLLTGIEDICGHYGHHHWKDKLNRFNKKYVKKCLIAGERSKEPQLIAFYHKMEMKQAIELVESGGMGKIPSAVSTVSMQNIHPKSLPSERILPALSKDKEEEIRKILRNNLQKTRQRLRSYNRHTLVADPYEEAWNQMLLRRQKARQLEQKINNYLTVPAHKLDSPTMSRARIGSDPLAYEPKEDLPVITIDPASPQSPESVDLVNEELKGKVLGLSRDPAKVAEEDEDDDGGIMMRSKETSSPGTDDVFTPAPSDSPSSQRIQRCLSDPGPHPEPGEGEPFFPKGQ

Row | Structure (SMILES) | IC50 [1] | half-life [2]
1 | Cc1cc(N2CC(c3ccccc3)CS2(=O)=O)c(S(C)(=O)=O)cc1C(=O)N=C(N)N (single isomer, unassigned; enantiomer a) [Example 5, N-[4-(1,1-Dioxo-4-phenylisothiazolidin-2-yl)-5-methanesulfonyl-2-methylbenzoyl]guanidine, hydrochloride, enantiomer A] | 13 nM | –
2 | Cc1cc(N2CC(c3ccc(F)cc3)CS2(=O)=O)c(S(C)(=O)=O)cc1C(=O)N=C(N)N (single isomer, unassigned; enantiomer a) [Example 8, N-{4-[4-(4-Fluorophenyl)-1,1-dioxoisothiazolidin-2-yl]-5-methanesulfonyl-2-methlbenzoyl}guanidine, hydrochloride, enantiomer A] | 12 nM | –
3 | Cc1cc(N2CC(c3ccccc3)CS2(=O)=O)c(S(C)(=O)=O)cc1C(=O)N=C(N)N (single isomer, unassigned; enantiomer b) [Example 6, N-[4-(1,1-Dioxo-4-phenylisothiazolidin-2-yl)-5-methanesulfonyl-2-methylbenzoyl]guanidine, hydrochloride, enantiomer B] | 45 nM | –
4 | Cc1cc(N2CC(c3ccc(F)cc3)CS2(=O)=O)c(S(C)(=O)=O)cc1C(=O)N=C(N)N.Cl (single isomer, unassigned; enantiomer b) [Example 9, N-{4-[4-(4-Fluorophenyl)-1,1-dioxoisothiazolidin-2-yl]-5-methanesulfonyl-2-methylbenzoyl}guanidine, hydrochloride, enantiomer B] | 23 nM | 4.6 h
5 | Cc1cc(N2CCCS2(=O)=O)c(S(C)(=O)=O)cc1C(=O)N=C(N)N [Example 1, N-[4-(1,1-Dioxoisothiazolidin-2-yl)-5-methanesulfonyl-2-methyl-benzoyl]guanidine] | 38 nM | –
6 | Cc1cc(N2CCCCS2(=O)=O)c(S(C)(=O)=O)cc1C(=O)N=C(N)N [Example 2, N-[4-(1,1-Dioxo-[1,2]thiazinan-2-yl)-5-methanesulfonyl-2-methylbenzoyl]guanidine] | 144 nM | –
7 | Cc1cc(N2C(C)(C)CCS2(=O)=O)c(S(C)(=O)=O)cc1C(=O)N=C(N)N [Example 3, N-[4-(3,3-Dimethyl-1,1-dioxoisothiazolidin-2-yl)-5-methanesulfonyl-2-methylbenzoyl]guanidine,] | 195 nM | –
8 | Cc1cc(N2CC(c3ccccc3)CS2(=O)=O)c(S(C)(=O)=O)cc1C(=O)N=C(N)N (stereo not shown) [Example 4, N-[4-(1,1-Dioxo-4-phenylisothiazolidin-2-yl)-5-methanesulfonyl-2-methylbenzoyl]guanidine, hydrochloride] | 6 nM | –
9 | Cc1cc(N2CC(c3ccc(F)cc3)CS2(=O)=O)c(S(C)(=O)=O)cc1C(=O)N=C(N)N (stereo not shown) [Example 7, N-{4-[4-(4-Fluorophenyl)-1,1-dioxoisothiazolidin-2-yl]-5-methanesulfonyl-2-methylbenzoyl}guanidine, hydrochloride] | 19 nM | –
10 | Cc1cc(N2CC(c3ccccc3)CCS2(=O)=O)c(S(C)(=O)=O)cc1C(=O)N=C(N)N (stereo not shown) [Example 10, N-[4-(1,1-Dioxo-4-phenyl-1-[1,2]thiazinan-2-yl)-5-methanesulfonyl-2-methylbenzoyl]guanidine] | 51 nM | –
11 | Cc1cc(N2CCN(C3CC3)S2(=O)=O)c(S(C)(=O)=O)cc1C(=O)N=C(N)N [Example 11, N-[4-(5-Cyclopropyl-1,1-dioxo-1-[1,2,5]thiadiazolidin-2-yl)-5-methanesulfonyl-2-methlbenzoyl]guanidine] | 113 nM | –
12 | Cc1cc(N2CCCN(C3CC3)S2(=O)=O)c(S(C)(=O)=O)cc1C(=O)N=C(N)N [Example 12, N-[4-(6-Cyclopropyl-1,1-dioxo-1-[1,2,6]thiadiazinan-2-yl)-5-methanesulfonyl-2-methlbenzoyl]guanidine] | 1520 nM | –
13 | NC(N)=NC(=O)c1ccc(N2CCCS2(=O)=O)c(C(F)(F)F)c1 [Example 13, N-[4-(1,1-Dioxo-1-isothiazolidin-2-yl)-3-trifluoromethyl-benzoyl]guanidine] | 20 nM | –
14 | NC(N)=NC(=O)c1ccc(N2CCCCS2(=O)=O)c(C(F)(F)F)c1 [Example 14, N-[4-(1,1-Dioxo-1-[1,2]thiazinan-2-yl)-3-trifluoromethyl-benzoyl]guanidine] | 13 nM | –
15 | CC(C)c1ccc(C(=O)N=C(N)N)cc1S(C)(=O)=O.CS(=O)(=O)O [cariporide, reference compound] | – | 3.3 h

From US7772262B2, “Substituted benzoylguanidines, method for production and use thereof as medicament or diagnostic and medicament comprising the same” (sanofi-aventis Deutschland GmbH, priority 2004, dated 2010)
